In brackets after ≈: the same amount, converted by molar mass. Where two headings read alike, the source gives them in different places.
Experiments:
JNK2 [1] = target: T1, JNK2 (Homo sapiens, UniProt P45984); test: JNK2 kinase (intrinsic ATPase, Kinase-Glo) assay; assay type: biochemical
JNK2 [2] = target: T1, JNK2; test: Promega NanoBRET intracellular target engagement (tracer K10 displacement), JNK2; assay type: cell-based
JNK1 [3] = target: T2, JNK1 (Homo sapiens, UniProt P45983); test: Promega NanoBRET intracellular target engagement (tracer K10 displacement), JNK1; assay type: cell-based
JNK3 [4] = target: T3, JNK3 (Homo sapiens, UniProt P53779); test: JNK3 kinase (intrinsic ATPase, Kinase-Glo) assay; assay type: biochemical
JNK3 [5] = target: T3, JNK3; test: Promega NanoBRET intracellular target engagement (tracer K10 displacement), JNK3; assay type: cell-based
JNK1 [6] = target: T2, JNK1; test: JNK1 kinase (intrinsic ATPase, Kinase-Glo) assay; assay type: biochemical
Description: JNK1, JNK2, and JNK3 hydrolyze ATP to ADP without any peptide substrates. This allows a very robust and fast endpoint assay where the remaining concentration of ATP is measured (BMG ClarioStar Plus plate reader) using the Kinase-Glo Assay kit from Promega (V6711). A luminescence signal is measured, which is produced by the catalytic conversion of beetle luciferin to oxyluciferin by luciferase. Potential inhibition of luciferase (i.e., false negatives) is easily detected, because assays without kinase are always included, and less ATP than is present in this control reaction could also indicate an inhibition of luciferase, which can be excluded by a counter screen with only luciferase.
To mitigate violation of the linear initial velocity principle, which is a problem in end-point assays when doing dose-responses, the enzyme concentration was carefully optimized, in a total assay volume of 25 μL. […] The kinase reaction was done for 30 or 60 min at 30° C., and detection of leftover ATP was measured according to Promega's protocol. […] Fractional activities were obtained from normalized data. Non-linear regression (GraphPad Prism7) and a modified Morrison equation for tight binding was used to determine apparent Ki values for inhibitors, assuming no particular mode of inhibition. An orthogonal binding assay (LanthaScreen) was outsourced to ThermoFisher Scientific's SelectScreen Services to determine IC50 values.

[7] = In vitro metabolism in human liver microsomes; conditions: human, microsomes
Description: (§1) The target product profile seeks to deliver JNK inhibitor as a once daily oral administration. To prioritize compounds for further development, in vitro metabolism of several CDD JNK inhibitors were determined to approximate the plasma half-life and the rate of metabolism of the compounds in vivo.

[8] = In vitro metabolism in mouse liver microsomes; conditions: for half-life: mouse, microsomes
Description: as §1

T2 sequence (P45983 whole entry): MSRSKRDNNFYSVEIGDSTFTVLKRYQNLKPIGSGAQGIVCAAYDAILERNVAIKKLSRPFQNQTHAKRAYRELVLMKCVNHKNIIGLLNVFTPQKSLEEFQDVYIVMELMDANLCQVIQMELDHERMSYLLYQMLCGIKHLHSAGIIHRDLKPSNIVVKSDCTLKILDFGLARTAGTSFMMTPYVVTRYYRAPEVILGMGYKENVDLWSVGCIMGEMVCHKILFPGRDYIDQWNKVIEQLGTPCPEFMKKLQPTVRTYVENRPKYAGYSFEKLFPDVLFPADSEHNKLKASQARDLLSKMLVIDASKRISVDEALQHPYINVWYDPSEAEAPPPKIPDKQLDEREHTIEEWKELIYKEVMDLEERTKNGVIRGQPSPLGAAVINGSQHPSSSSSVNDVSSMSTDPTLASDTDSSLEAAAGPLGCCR
T3 sequence (P53779 whole entry): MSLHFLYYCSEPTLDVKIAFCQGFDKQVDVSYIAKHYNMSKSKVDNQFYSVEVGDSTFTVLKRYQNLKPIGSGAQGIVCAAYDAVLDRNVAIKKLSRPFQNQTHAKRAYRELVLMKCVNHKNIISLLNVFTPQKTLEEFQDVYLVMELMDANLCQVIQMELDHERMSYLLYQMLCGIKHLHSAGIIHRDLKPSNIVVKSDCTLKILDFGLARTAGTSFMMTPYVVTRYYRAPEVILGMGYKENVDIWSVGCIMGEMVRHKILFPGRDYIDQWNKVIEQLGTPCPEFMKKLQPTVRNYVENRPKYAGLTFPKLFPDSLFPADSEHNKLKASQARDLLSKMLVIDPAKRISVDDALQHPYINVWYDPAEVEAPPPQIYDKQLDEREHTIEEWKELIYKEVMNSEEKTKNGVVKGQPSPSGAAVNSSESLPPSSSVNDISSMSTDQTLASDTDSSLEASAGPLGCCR
T1 sequence (P45984 whole entry): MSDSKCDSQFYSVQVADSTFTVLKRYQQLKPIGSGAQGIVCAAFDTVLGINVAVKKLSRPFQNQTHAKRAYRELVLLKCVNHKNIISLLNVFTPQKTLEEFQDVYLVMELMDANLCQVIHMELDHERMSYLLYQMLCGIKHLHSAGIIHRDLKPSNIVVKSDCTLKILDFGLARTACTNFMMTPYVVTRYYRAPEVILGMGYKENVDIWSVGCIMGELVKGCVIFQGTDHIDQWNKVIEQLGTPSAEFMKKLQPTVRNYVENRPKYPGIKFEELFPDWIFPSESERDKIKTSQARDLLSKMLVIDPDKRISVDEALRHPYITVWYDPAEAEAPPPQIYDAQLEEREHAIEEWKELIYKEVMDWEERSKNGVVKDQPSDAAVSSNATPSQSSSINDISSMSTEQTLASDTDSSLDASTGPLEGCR

## CNC(=O)c1cc2c(-c3cnc4[nH]ccc4c3)cccc2s1 [CDD-2627, N-methyl-4-(1H-pyrrolo[2,3-b]pyridin-5-yl)benzo[b]thiophene-2-carboxamide]
JNK2 [1]; Table 3a, read-out: Kd JNK2
  Kd: 14.8 ± 0.95 nM
JNK2 [2]
  IC50: 6100 nM
JNK1 [3]
  IC50: 14800 nM
JNK3 [4]; Table 3a, read-out: Kd JNK3
  Kd: 9 ± 2.4 nM
JNK3 [5]
  IC50: 23000 nM
Solubility
  solubility: 40.3 µM (≈ 12.4 µg/mL)
JNK1 [6]
  Kd: 3.74 ± 0.93 nM

## CNC(=O)c1ccn2ncc(-c3cnc4[nH]ccc4c3)c2c1 [CDD-2574, N-methyl-3-(1H-pyrrolo[2,3-b]pyridin-5-yl)pyrazolo[1,5-a]pyridine-5-carboxamide]
JNK2 [1]; Table 3a, read-out: Kd JNK2
  Kd: 12.5 ± 0.68 nM
[7]
  half-life: 36.5 min
[8]
  half-life: 7.5 min
JNK2 [2]
  IC50: 5400 nM
JNK1 [3]
  IC50: 7300 nM
JNK3 [4]; Table 3a, read-out: Kd JNK3
  Kd: 6.56 ± 0.85 nM
JNK3 [5]
  IC50: 5900 nM
Solubility
  solubility: 11.1 µM (≈ 3.23 µg/mL)
JNK1 [6]
  Kd: 1.69 ± 0.39 nM

## O=C(Nc1ccc(O)c(C(=O)N2CCC2)c1)c1cc2c(-c3cnc4[nH]ccc4c3)cccc2s1 [CDD-3014, N-(3-(azetidine-1-carbonyl)-4-hydroxyphenyl)-4-(1H-pyrrolo[2,3-b]pyridin-5-yl)benzo[b]thiophene-2-carboxamide]
JNK2 [1]; Table 3a, read-out: Kd JNK2
  Kd: 5.74 ± 0.5 nM
[7]
  half-life: 176 min
[8]
  half-life: 61.4 min
JNK2 [2]
  IC50: 738 nM
JNK1 [3]
  IC50: 789 nM
JNK3 [4]; Table 3a, read-out: Kd JNK3
  Kd: 2.92 ± 0.21 nM
JNK3 [5]
  IC50: 960 nM
Solubility
  solubility: 0.4 µM (≈ 0.187 µg/mL)
JNK1 [6]
  Kd: 0.58 ± 0.08 nM

## O=C(Nc1cncnc1)c1cc2c(-c3cnc4[nH]ccc4c3)cccc2s1 [CDD-3015, N-(pyrimidin-5-yl)-4-(1H-pyrrolo[2,3-b]pyridin-5-yl)benzo[b]thiophene-2-carboxamide]
JNK2 [1]; Table 3a, read-out: Kd JNK2
  Kd: 6.84 ± 0.81 nM
[7]
  half-life: 214 min
[8]
  half-life: 46.4 min
JNK2 [2]
  IC50: 3200 nM
JNK1 [3]
  IC50: 3500 nM
JNK3 [4]; Table 3a, read-out: Kd JNK3
  Kd: 3.18 ± 0.14 nM
JNK3 [5]
  IC50: 8200 nM
Solubility
  solubility: 0.3 µM (≈ 0.111 µg/mL)
JNK1 [6]
  Kd: 2.34 ± 0.3 nM

## CNCc1ccc(NC(=O)c2ccc3ncc(-c4cnc5[nH]ccc5c4)n3c2)cc1 [CDD-2488, N-(4-((methylamino)methyl)phenyl)-3-(1H-pyrrolo[2,3-b]pyridin-5-yl)imidazo[1,2-a]pyridine-6-carboxamide]
JNK2 [1]; Table 3a, read-out: Kd JNK2
  Kd: 3.08 ± 0.16 nM
[7]
  half-life: 119 min
[8]
  half-life: 126 min
JNK2 [2]
  IC50: 13500 nM
JNK1 [3]
  IC50: 66000 nM
JNK3 [4]; Table 3a, read-out: Kd JNK3
  Kd: 4.34 ± 0.6 nM
JNK3 [5]
  IC50: 34800 nM
Solubility
  solubility: 124 µM (≈ 49.2 µg/mL)
JNK1 [6]
  Kd: 3.1 ± 0.8 nM

## COc1ccc(NC(=O)c2cc3c(-c4cnc5[nH]ccc5c4)cccc3s2)cc1C(=O)N1CCN(C)CC1 [CDD-2636, N-(4-methoxy-3-(4-methylpiperazine-1-carbonyl)phenyl)-4-(1H-pyrrolo[2,3-b]pyridin-5-yl)benzo[b]thiophene-2-carboxamide]
JNK2 [1]; Table 3a, read-out: Kd JNK2
  Kd: 1.93 ± 0.14 nM
[7]
  half-life: 16 min
[8]
  half-life: 16.3 min
JNK2 [2]
  IC50: 820 nM
JNK1 [3]
  IC50: 1200 nM
JNK3 [4]; Table 3a, read-out: Kd JNK3
  Kd: 0.54 ± 0.09 nM
JNK3 [5]
  IC50: 1200 nM
Solubility
  solubility: 4.9 µM (≈ 2.58 µg/mL)
JNK1 [6]
  Kd: 0.57 ± 0.1 nM

## COc1ccc(NC(=O)c2cc3c(-c4cnc5[nH]cc(C)c5c4)cccc3s2)cc1C(=O)N(C)C [CDD-2731, N-(3-(dimethylcarbamoyl)-4-methoxyphenyl)-4-(3-methyl-1H-pyrrolo[2,3-b]pyridin-5-yl)benzo[b]thiophene-2-carboxamide]
JNK2 [1]; Table 3a, read-out: Kd JNK2
  Kd: 1.28 ± 0.15 nM
[7]
  half-life: 115 min
[8]; liver microsomes, in words
  metabolism in liver microsomes: rapidly metabolized
[8]
  half-life: 31.8 min
JNK2 [2]
  IC50: 156 nM
JNK1 [3]
  IC50: 156 nM
JNK3 [4]; Table 3a, read-out: Kd JNK3
  Kd: 0.81 ± 0.05 nM
JNK3 [5]
  IC50: 124 nM
Solubility
  solubility: 3.2 µM (≈ 1.55 µg/mL)
JNK1 [6]
  Kd: 0.17 ± 0.05 nM

## CN(C)C(=O)c1cc(NC(=O)c2cc3c(-c4cnc5[nH]ccc5c4)cccc3o2)ccc1O [CDD-2855, N-(3-(dimethylcarbamoyl)-4-hydroxyphenyl)-4-(1H-pyrrolo[2,3-b]pyridin-5-yl)benzofuran-2-carboxamide]
JNK2 [1]; Table 3a, read-out: Kd JNK2
  Kd: 12.2 ± 1.3 nM
[7]
  half-life: 206 min
[8]
  half-life: 115 min
JNK2 [2]
  IC50: 4200 nM
JNK1 [3]
  IC50: 4910 nM
JNK3 [4]; Table 3a, read-out: Kd JNK3
  Kd: 2.68 ± 0.2 nM
JNK3 [5]
  IC50: 5300 nM
JNK1 [6]
  Kd: 1.52 ± 0.15 nM

## Cc1ccc(NC(=O)c2ccn3ncc(-c4cncc5ccccc45)c3c2)cc1 [CDD-2325, 3-(isoquinolin-4-yl)-N-(p-tolyl)pyrazolo[1,5-a]pyridine-5-carboxamide]
JNK2 [1]; Table 3a, read-out: Kd JNK2
  Kd: 1.27 ± 0.14 nM
[7]
  half-life: 7.7 min
[8]
  half-life: 31 min
JNK2 [2]
  IC50: 890 nM
JNK1 [3]
  IC50: 1400 nM
JNK3 [4]; Table 3a, read-out: Kd JNK3
  Kd: 1.18 ± 0.09 nM
JNK3 [5]
  IC50: 1200 nM
Solubility
  solubility: 2.3 µM (≈ 0.87 µg/mL)
JNK1 [6]
  Kd: 0.28 ± 0.12 nM

## CN(C)C(=O)c1ccc(O)c(NC(=O)c2cc3c(-c4cnc5[nH]ccc5c4)cccc3s2)c1 [CDD-2938, N-(5-(dimethylcarbamoyl)-2-hydroxyphenyl)-4-(1H-pyrrolo[2,3-b]pyridin-5-yl)benzo[b]thiophene-2-carboxamide]
JNK2 [1]; Table 3a, read-out: Kd JNK2
  Kd: 1.22 ± 0.27 nM
[7]
  half-life: 24.3 min
[8]
  half-life: 24 min
JNK2 [2]
  IC50: 16100 nM
JNK1 [3]
  IC50: 11500 nM
JNK3 [4]; Table 3a, read-out: Kd JNK3
  Kd: 1.41 ± 0.3 nM
JNK3 [5]
  IC50: 15400 nM
Solubility
  solubility: 5.4 µM (≈ 2.47 µg/mL)
JNK1 [6]
  Kd: 4.6 ± 1.9 nM

## COc1ccc(NC(=O)c2cc3c(-c4cnc5[nH]ccc5c4)cccc3s2)cc1C(=O)N1CCOCC1 [CDD-2635, N-(4-methoxy-3-(morpholine-4-carbonyl)phenyl)-4-(1H-pyrrolo[2,3-b]pyridin-5-yl)benzo[b]thiophene-2-carboxamide]
JNK2 [1]; Table 3a, read-out: Kd JNK2
  Kd: 1.54 ± 0.13 nM
[7]
  half-life: 74.6 min
[8]
  half-life: 28.6 min
JNK2 [2]
  IC50: 325 nM
JNK1 [3]
  IC50: 186 nM
JNK3 [4]; Table 3a, read-out: Kd JNK3
  Kd: 0.76 ± 0.22 nM
JNK3 [5]
  IC50: 160 nM
Solubility
  solubility: 2.6 µM (≈ 1.33 µg/mL)
JNK1 [6]
  Kd: 0.16 ± 0.05 nM

## O=C(Nc1cccc(C(=O)N2CCCCC2)c1)c1cc2c(-c3cnc4[nH]ccc4c3)cccc2s1 [CDD-2630, N-(3-(piperidine-1-carbonyl)phenyl)-4-(1H-pyrrolo[2,3-b]pyridin-5-yl)benzo[b]thiophene-2-carboxamide]
JNK2 [1]; Table 3a, read-out: Kd JNK2
  Kd: 2.47 ± 0.25 nM
[7]
  half-life: 18.2 min
[8]
  half-life: 3.5 min
JNK2 [2]
  IC50: 230 nM
JNK1 [3]
  IC50: 430 nM
JNK3 [4]; Table 3a, read-out: Kd JNK3
  Kd: 1.63 ± 0.26 nM
JNK3 [5]
  IC50: 149 nM
Solubility
  solubility: 1.6 µM (≈ 0.769 µg/mL)
JNK1 [6]
  Kd: 0.68 ± 0.08 nM

## CNC(=O)c1cc(NC(=O)c2cc3c(-c4cnc5[nH]ccc5c4)cccc3s2)ccc1OC [CDD-2490, N-(4-methoxy-3-(methylcarbamoyl)phenyl)-4-(1H-pyrrolo[2,3-b]pyridin-5-yl)benzo[b]thiophene-2-carboxamide]
JNK2 [1]
  Kd: 5.37 ± 0.42 nM
JNK2 [2]
  IC50: 2000 nM
JNK1 [3]
  IC50: 6300 nM
JNK3 [4]
  Kd: 3.53 nM
JNK3 [5]
  IC50: 29300 nM
Solubility
  solubility: 0.4 µM (≈ 0.183 µg/mL)
JNK1 [6]
  Kd: 1.52 ± 0.3 nM

## Cc1ccc(NC(=O)c2ccn3ncc(-c4cnc5[nH]ccc5c4)c3c2)cc1 [CDD-2288, 3-(1H-pyrrolo[2,3-b]pyridin-5-yl)-N-(p-tolyl)pyrazolo[1,5-a]pyridine-5-carboxamide]
JNK2 [1]; Table 3a, read-out: Kd JNK2
  Kd: 1.63 ± 0.14 nM
JNK2 [2]
  IC50: 900 nM
JNK1 [3]
  IC50: 830 nM
JNK3 [4]; Table 3a, read-out: Kd JNK3
  Kd: 1.41 ± 0.07 nM
JNK3 [5]
  IC50: 1500 nM
Solubility
  solubility: 1 µM (≈ 0.367 µg/mL)
JNK1 [6]
  Kd: 0.36 ± 0.11 nM

Reference: patent publication US20260294922A1, “Inhibitors of JUN N-Terminal Kinases (JNK1, JNK2, and/or JNK3) and Mitogen-Activated Protein Kinases (MAPK8, MAPK9, and/or MAPK10) and Methods of Using Same” (Baylor College of Medicine, priority 2023, published 2026)
